{"source": "patent US20210268070A1", "about": "“Use of Immunomodulators to Control Infection and Stimulate Healing in Normal and Diabetic Wounds” (priority 2018, published 2021)", "key": {"P. aeruginosa PA103 [1]": {"system": "P. aeruginosa PA103", "assay": "Implant model of infection with PA103", "type": "in vivo", "settings": "prophylaxis tobramycin 3.5 mg/kg i.p. 1 h before implantation and infection, FIG. 2A", "description": "(§1) The implant model of infection in C57B mice was used for 10^6 PA103 (FIG. 2A) or 10^6 USA300 MRSA (FIG. 2C). The wound model of infection was used for 10^6 PA103 in C57BL mice (FIG. 2B) or diabetic db/db mice (FIG. 2D). Infection was carried out at the time of surgery by adding bacteria directly to the surgical sites. Immunomodulators, namely, LPS (10 ng or 100 ng), fMLP (10 ng or 100 ng), CCL3 (1 μg) were added topically at the surgical sites at the time of surgery & infection. GM-CSF (10 μg/kg), tobramycin (Tob at 3.5 mg/kg), and vancomycin (40 mg/kg) were added systemically by i.p. injection 1 h before surgical implantation and infection. Infection levels were determined 24 h following infection (N>4 animals/group; NS=not significant, * p<0.01, ** p<0.001, ***p<0.0001 One-way ANOVA).\n(§2) We assessed these immunomodulators for their ability to control wound and/or implant SS's in normal (C57BL/6) or diabetic (db/db) mice. We acknowledge that diabetic individuals are not as immunocompromised as other immunocompromised patient groups. […] All immunomodulators were added locally at the surgical sites at the time of infection, except GM-CSF (10 μg/kg) which was administered systemically by i.p. injection 1 h prior to surgery per its FDA-approved route of delivery. […] CCL3 and GM-CSF are also tested using the implant model of infection. Here, we tested CCL3 and GM-CSF in the wound model of infection in C57B mice.\n(§3) Implant surgery and wound surgery and surgical site infection are performed according to the following method. On the day of surgery, all mice are anesthetized by an intraperitoneal injection of a ketamine/xylazine mixture (90 mg/kg ketamine+5 mg/kg xylazine for mice). The back of the animals is shaved using an electric shave and scrubbed with alcohol swabs 3 times, a topical antiseptic solution (Hibiclens; chlorhexidine gluconate) is applied to the skin. The surgical procedures are performed with sterile instruments, sterile surgical gloves, and aseptic techniques as follows. […]"}, "P. aeruginosa PA103 [2]": {"system": "P. aeruginosa PA103", "assay": "Wound model of infection with PA103 in normal (C57BL) mice", "type": "in vivo", "description": "as §1\n(§4) (15A) C57BL/6 mice received 40 mg/kg prophylaxis (Sys) vancomycin (Vanc) or 3.5 mg/kg tobramycin (Tobra) by i.p. injection. (15A) 1 h after antibiotic administration, 106 CFU of USA300 was added to implant after insertion into facia (Implant Model). (15B) 1 h after antibiotic administration, 10^6CFU of USA300 or 106CFU PA103 (Pa) were added full-thickness wounds in of C57BL/6 (Wound Model). Infection levels at implant surgical site (Tissue & Implant) or a distant site (Spleen), or wound tissues were assessed 24 h following infection. (N>4 animals/group, * p<0.01, ***p<0.0001, One-way ANOVA).\nas §2\nImplant surgery and wound surgery and surgical site infection are performed according to the following method. On the day of surgery, all mice are anesthetized by an intraperitoneal injection of a ketamine/xylazine mixture (90 mg/kg ketamine+5 mg/kg xylazine for mice). The back of the animals is shaved using an electric shave and scrubbed with alcohol swabs 3 times, a topical antiseptic solution (Hibiclens; chlorhexidine gluconate) is applied to the skin. The surgical procedures are performed with sterile instruments, sterile surgical gloves, and aseptic techniques as follows. For wound surgical procedure, a sterile biopsy punch (5-7 mm diameter) is used to punch through the full thickness of the back skin below the shoulder blades. Four 5-7 mm skin wounds are made on the back of each mouse. Wounds placed in this area cannot be reached by the animals and therefore are protected from self-licking. For implant surgery, a 4-mm long lateral skin incision is made on the upper back, and the skin is retracted. The space above the muscle is opened using blunt dissection with fine forceps, to create a rostral fascia indentation. Then, immunomodulators at indicated concentrations (in a 20 μL volume) or PBS control are injected into the fascia indentation."}, "USA300 MRSA": {"system": "USA300 MRSA", "assay": "Implant model of infection with USA300 MRSA", "type": "in vivo", "description": "as §1, §4, §2\nas §3, with “follows. For wound surgical procedure, a sterile biopsy punch (5-7 mm diameter) is used to punch through the full thickness of the back skin below the shoulder blades.” for “follows.”"}, "leukocytes": {"system": "leukocytes", "assay": "Leukocyte migration (H&E staining) and activation (MPO ELISA) in normal wound", "type": "in vivo, C57B mice", "settings": "compared to PBS, FIGS. 10A-10D", "source_text": "FIGS. 10A-10D illustrate that immunomodulatory treatment enhances leukocyte migration and neutrophil activation in a normal wound. (10A, 10B—CCL3, 10C—LPS, fMLF, 10D—GM-CSF), N=4; Significance determined as compared to PBS *<0.05, **p<0.01, ***p<0.001.\nWe next examined the impact of CCL3 topical treatment on leukocyte migration by H&E staining, and on leukocyte activation by myeloperoxidase (MPO) measurements by ELISA. (MPO is primarily used as a marker for neutrophil activation but it can also be expressed to lesser extent in macrophages)."}, "MRSA": {"system": "MRSA", "assay": "Normal wound model of MRSA infection", "type": "in vivo", "settings": "FIG. 6B", "description": "as §2\nas §3, with “follows. For wound surgical procedure, a sterile biopsy punch (5-7 mm diameter) is used to punch through the full thickness of the back skin below the shoulder blades.” for “follows.”"}}}
{"molecule": "NC[C@H]1O[C@H](O[C@H]2[C@H](O)[C@@H](O[C@H]3O[C@H](CO)[C@@H](O)[C@H](N)[C@H]3O)[C@H](N)C[C@@H]2N)[C@H](N)C[C@@H]1O", "note": "[tobramycin]", "values": [{"measurement": "bacterial loads on implants as compared to implants treated with immunomodulators", "setting": "P. aeruginosa PA103 [1]", "value": "significantly higher"}, {"measurement": "infection levels in wound tissues after prophylaxis antibiotic", "setting": "P. aeruginosa PA103 [2]; C57BL/6 mice, 3.5 mg/kg i.p. 1 h before 10^6 CFU PA103, 24 h following infection, FIG. 15B", "value": "effective"}]}
{"molecule": "CN[C@H](CC(C)C)C(=O)N[C@H]1C(=O)N[C@@H](CC(N)=O)C(=O)N[C@H]2C(=O)N[C@H]3C(=O)N[C@H](C(=O)N[C@H](C(=O)O)c4cc(O)cc(O)c4-c4cc3ccc4O)[C@H](O)c3ccc(c(Cl)c3)Oc3cc2cc(c3O[C@@H]2O[C@H](CO)[C@@H](O)[C@H](O)[C@H]2O[C@H]2C[C@](C)(N)[C@H](O)[C@H](C)O2)Oc2ccc(cc2Cl)[C@H]1O", "note": "[vancomycin]", "values": [{"measurement": "infection levels at implant surgical site (Tissue & Implant) or a distant site (Spleen)", "setting": "USA300 MRSA; C57BL/6 mice, prophylaxis antibiotic i.p. 1 h before 10^6 CFU USA300, 24 h following infection, FIG. 15A", "value": "effective"}, {"measurement": "bacterial loads on implants as compared to implants treated with immunomodulators", "setting": "USA300 MRSA; prophylaxis vancomycin 40 mg/kg i.p., FIG. 15A & 2C", "value": "significantly higher"}]}
{"molecule": "Granulocyte-macrophage colony-stimulating factor [GM-CSF]", "values": [{"measurement": "PA103 infection in wounds as compared to PBS-treated wounds", "setting": "P. aeruginosa PA103 [2]; C57BL mice, 10^6 PA103, systemic 10 μg/kg i.p. 1 h prior to surgery, 24 h, FIG. 2B", "value": "significantly reduce"}, {"measurement": "reduction of PA103 infection in wounds, compared with CCL3 or tobramycin", "setting": "P. aeruginosa PA103 [2]; systemic GM-CSF 10 μg/kg i.p., FIG. 2B", "value": "not as effective"}, {"measurement": "leukocyte migration and neutrophil activation in a normal wound", "setting": "leukocytes", "value": "enhances"}]}
{"molecule": "IL-1β: pro-inflammatory cytokine interleukin-1 (SEQ ID NO: 11, precursor)", "values": [{"measurement": "controlling MRSA infection in normal wound model", "setting": "MRSA", "value": "effective"}, {"measurement": "infection control against P. aeruginosa PA103 in normal wounds", "setting": "P. aeruginosa PA103 [2]; C57B mice, immunomodulator added locally at time of infection, compared to PBS, FIGS. 3A, 4A, 4B, 6A", "value": "effective"}]}
